In PMC12369479 (Journal of Experimental Botany, 2025):

Legend:
PpADK2 = PpADK2 (Physcomitrium patens, UniProt A9RF27); assay: ADK activity, coupled reaction with PK and LDH; conditions: 100 µM substrate, 10 mM ATP, pH 7.5, 30 °C
Description: (§1) Substrate analogs were purchased from Sigma-Aldrich (www.sigmaaldrich.com). The ADK activity was measured spectrophotometrically on an Agilent 8453 UV-Vis spectrophotometer (www.agilent.com) at 30 °C using a coupled reaction with pyruvate kinase (PK) and lactate dehydrogenase (LDH) (www.sigmaaldrich.com) ([Blondin et al., 1994]). In this assay, PK converts ADP produced by ADK and phosphoenolpyruvate (PEP) to pyruvate. Subsequently, LDH then converts pyruvate to lactate using the coenzyme NADH, with the conversion monitored at 340 nm. The reaction was conducted in 50 mM Tris–HCl buffer at pH 7.5, containing 50 mM KCl, 6 mM MgCl2, 300 µM PEP, 200 µM NADH, 10 mM ATP, 2 U of PK, and 2.5 U of LDH, using various nucleoside substrates. Kinetic constants were determined using GraphPad Prism 8.0 software (www.graphpad.com). Each measurement was performed six times using repetitive purified enzymes. The activities of all five ADKs were also measured by HPLC ([Moffatt et al., 1991]). The reaction mixture comprised 50 mM Tris–HCl pH 7.5, 5 mM MgCl2, 0.5 mM DTT, 30 mM NaF, 5 mM ATP, 40 µM substrate, and 2–150 ng of purified ADK, depending on the isoform. The reaction was incubated at 30 °C for up to 1 h. […] Similarly, the conversion of cytokinin ribosides to monophosphates was followed on a LiChrosphere 60 RP-Select B (5 µm) LiChroCART column 125-4 column equilibrated with 10 mM triethylamine at pH 5.4 plus 10% methanol, and stepwise eluted with 100% methanol.

ZmADK1 = ZmADK1 (Zea mays, UniProt K7UH13); assay: ADK activity, coupled reaction with PK and LDH; conditions: 100 µM substrate, 10 mM ATP, pH 7.5, 30 °C
Description: as §1

PpADK1 = biological target: T1, PpADK1 (Physcomitrium patens, UniProt O49923); assay: ADK activity, coupled reaction with PK and LDH; assay type: biochemical, Physcomitrella patens; conditions: 100 µM substrate, 10 mM ATP, pH 7.5, 30 °C
T1 construct: made in house; host or cells: E. coli T7 Express Iq
Description: as §1

WT ZmADK3 = WT ZmADK3 (Zea mays, UniProt A0A1D6E5Z5); assay: Binding affinity by MST
ZmADK3 N295A variant [1] = biological target: T2, ZmADK3 N295A variant (Zea mays, UniProt A0A1D6E5Z5, N295A); assay: Binding affinity by MST
Description: (§2) All ZmADK3 mutants were cloned by 30 cycle PCRs using tail-to-tail oriented phosphorylated primers, with the mutation being located at the 5′ end of one of the primers. The following mutants were cloned using the primers given in Supplementary Table S1: D19A, R132A, N222A, E225A, N295A, and D299A. The products were treated with DpnI restriction enzyme, gel purified, and ligated using T4 DNA ligase (www.thermofisher.com). Clones were transformed into T7 express I^qE. coli competent cells.
The microscale thermophoresis (MST) method was used to determine the binding affinity of various ribosides for ZmADK2 and PpADK1. Proteins were fluorescently labeled with RED-tris-NTA dye (www.nanotemper-technologies.com) using a 1:1 dye/protein molar ratio. The labeled protein was adjusted to 100–300 nM in 50 mM HEPES buffer pH 7.5, 1 mM MgCl2, and 0.2% Tween. Measurements were performed in premium capillaries on a Monolith NT.115 instrument at 30 °C with 5 s/30 s/5 s laser off/on/off times, respectively, with continuous sample fluorescence recording. Thermal stability was measured by nano-differential scanning fluorimetry on a Prometheus NT.48 instrument (www.nanotemper-technologies.com) in various buffers covering a pH (7.0–9.5) and temperature range (25–95 °C), with a heating rate of 1 °C min^–1, and using NT melting control software. Protein unfolding was measured by detecting the temperature-induced change in tryptophan fluorescence intensity at emission wavelengths of 330±5 nm and 350±5 nm. The melting temperature (Tm) was deduced from the maximum of the first derivative of the fluorescence ratios F350/F330.

ZmADK3 D19A variant = ZmADK3 D19A variant (Zea mays, UniProt A0A1D6E5Z5, D19A); assay: ADK activity, coupled reaction with PK and LDH; assay type: biochemical
Description: as §2, §1

ZmADK3 D299A variant = ZmADK3 D299A variant (Zea mays, UniProt A0A1D6E5Z5, D299A); assay: ADK activity, coupled reaction with PK and LDH; assay type: biochemical; conditions: 100 µM Ado, 10 mM ATP, 30 °C
Description: as §2, §1

ZmADK3 E225A variant = ZmADK3 E225A variant (Zea mays, UniProt A0A1D6E5Z5, E225A); assay: ADK activity, coupled reaction with PK and LDH; assay type: biochemical; conditions: 100 µM Ado, 10 mM ATP, 30 °C
Description: as §2, §1

ZmADK3 N222A variant = ZmADK3 N222A variant (Zea mays, UniProt A0A1D6E5Z5, N222A); assay: ADK activity, coupled reaction with PK and LDH; assay type: biochemical; conditions: 100 µM Ado, 10 mM ATP, 30 °C
Description: as §2, §1

ZmADK3 N295A variant [2] = biological target: T2, ZmADK3 N295A variant; assay: ADK activity, coupled reaction with PK and LDH; assay type: biochemical; conditions: 100 µM Ado, 10 mM ATP, 30 °C
Description: as §2, §1

ZmADK3 R132A variant = ZmADK3 R132A variant (Zea mays, UniProt A0A1D6E5Z5, R132A); assay: ADK activity, coupled reaction with PK and LDH; assay type: biochemical; conditions: 100 µM Ado, 10 mM ATP, 30 °C
Description: as §2, §1

rabbit ADK = test system: rabbit ADK; set-up: method as in Miller et al., 1979a; conditions: ref Miller et al., 1979a; cited from earlier work

T2 sequence (A0A1D6E5Z5 entry or part of it N295A): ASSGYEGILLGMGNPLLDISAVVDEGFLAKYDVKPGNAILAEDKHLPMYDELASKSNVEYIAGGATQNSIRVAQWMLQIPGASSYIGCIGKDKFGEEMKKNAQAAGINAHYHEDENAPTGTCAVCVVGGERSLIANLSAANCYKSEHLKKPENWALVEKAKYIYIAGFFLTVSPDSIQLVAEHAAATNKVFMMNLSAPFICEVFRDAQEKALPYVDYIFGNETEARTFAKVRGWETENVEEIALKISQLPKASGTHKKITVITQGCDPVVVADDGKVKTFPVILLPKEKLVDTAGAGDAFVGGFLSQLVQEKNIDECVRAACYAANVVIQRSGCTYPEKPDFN
ZmADK3 D19A variant, sequence (A0A1D6E5Z5 entry or part of it D19A): as the sequence (A0A1D6E5Z5 entry or part of it N295A) above, with D18A, A294N counted along it
WT ZmADK3, sequence (A0A1D6E5Z5 2-344): as the sequence (A0A1D6E5Z5 entry or part of it N295A) above, with A294N counted along it
ZmADK3 R132A variant, sequence (A0A1D6E5Z5 entry or part of it R132A): as the sequence (A0A1D6E5Z5 entry or part of it N295A) above, with R131A, A294N counted along it
ZmADK1, sequence (K7UH13 entry or part of it): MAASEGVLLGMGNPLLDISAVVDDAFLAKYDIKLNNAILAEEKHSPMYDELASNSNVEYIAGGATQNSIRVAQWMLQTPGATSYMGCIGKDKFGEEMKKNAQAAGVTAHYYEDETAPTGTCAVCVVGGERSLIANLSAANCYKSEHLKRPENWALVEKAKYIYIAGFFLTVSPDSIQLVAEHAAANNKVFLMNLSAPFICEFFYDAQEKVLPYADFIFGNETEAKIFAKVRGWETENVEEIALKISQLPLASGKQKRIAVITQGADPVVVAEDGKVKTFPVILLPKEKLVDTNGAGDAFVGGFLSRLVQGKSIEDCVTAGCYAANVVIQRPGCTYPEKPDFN
T1 sequence (O49923 whole entry): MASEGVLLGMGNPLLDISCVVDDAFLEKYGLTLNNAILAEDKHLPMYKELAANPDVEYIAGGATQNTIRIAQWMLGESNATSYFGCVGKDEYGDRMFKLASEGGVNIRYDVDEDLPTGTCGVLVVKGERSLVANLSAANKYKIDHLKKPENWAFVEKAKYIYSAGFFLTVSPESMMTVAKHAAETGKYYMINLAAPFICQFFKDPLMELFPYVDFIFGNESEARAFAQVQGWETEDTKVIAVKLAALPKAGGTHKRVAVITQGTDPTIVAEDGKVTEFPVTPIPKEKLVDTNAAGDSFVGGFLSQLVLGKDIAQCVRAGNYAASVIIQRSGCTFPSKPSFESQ
ZmADK3 N222A variant, sequence (A0A1D6E5Z5 entry or part of it N222A): as the sequence (A0A1D6E5Z5 entry or part of it N295A) above, with N221A, A294N counted along it
PpADK2, sequence (A9RF27 entry or part of it): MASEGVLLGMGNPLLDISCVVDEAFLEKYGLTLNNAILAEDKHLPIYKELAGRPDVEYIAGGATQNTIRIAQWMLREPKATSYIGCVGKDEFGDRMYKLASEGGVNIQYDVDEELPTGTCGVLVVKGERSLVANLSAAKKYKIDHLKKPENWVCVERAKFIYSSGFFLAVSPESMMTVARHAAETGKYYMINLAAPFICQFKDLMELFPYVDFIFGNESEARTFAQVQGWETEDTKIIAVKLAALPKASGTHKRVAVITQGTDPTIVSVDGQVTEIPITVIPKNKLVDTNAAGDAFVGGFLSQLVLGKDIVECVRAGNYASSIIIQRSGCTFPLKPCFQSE
ZmADK3 D299A variant, sequence (A0A1D6E5Z5 entry or part of it D299A): as the sequence (A0A1D6E5Z5 entry or part of it N295A) above, with A294N, D298A counted along it
ZmADK3 E225A variant, sequence (A0A1D6E5Z5 entry or part of it E225A): as the sequence (A0A1D6E5Z5 entry or part of it N295A) above, with E224A, A294N counted along it

Compound Nc1ncnc2c1ncn2[C@@H]1O[C@H](CO)[C@@H](O)[C@H]1O [Ado, adenosine] has a Specific activity (PpADK2) of 4.70±0.05 nmol s^–1 mg^–1, a Specific activity (ZmADK1) of 30.5±0.4 nmol s^–1 mg^–1 and a Specific activity (PpADK1) of 5.09±0.26 nmol s^–1 mg^–1. The Kd (WT ZmADK3) was 0.28 ± 0.05 µM, the Kd (ZmADK3 N295A variant [1]) was 274 ± 10 µM and the “reduction in specific activity” value (ZmADK3 D19A variant; D19A variant of ZmADK3 vs WT, Ado substrate) was 10 fold. The Specific activity (ZmADK3 D19A variant; D19A, 100 µM Ado, 10 mM ATP, 30 °C) was 3.3±0.4 nkat mg^–1, the Specific activity (ZmADK3 D299A variant) was 1.8±0.1 nkat mg^–1 and the Specific activity (ZmADK3 E225A variant) was 1.9±0.4 nkat mg^–1. For the same compound, the Specific activity (ZmADK3 N222A variant) was 13.4±0.7 nkat mg^–1, the Specific activity (ZmADK3 N295A variant [2]) was 10.1±0.1 nkat mg^–1 and the Specific activity (ZmADK3 R132A variant) was 7.4±0.3 nkat mg^–1. For the same compound, the Km (rabbit ADK) was 0.4 µM.
